According to ChEMBL document CHEMBL4382242, “Novel racemosin B derivatives as new therapeutic agents for aggressive breast cancer” (Bioorg Med Chem, 2018):
One block for each compound: values may come before it. The source made the active and inactive calls. No cut-off for these calls is given here.

Experiments:
MCF7 = assay: Growth inhibition of human MCF7 cells after 72 hrs by MTT assay; format: functional, cell-based; details: MCF7, 72 h
MDA-MB-231 [1] = assay: Growth inhibition of human MDA-MB-231 cells after 72 hrs by MTT assay; format: functional, cell-based; details: MDA-MB-231, 72 h
MDA-MB-231 [2] = assay: Cell cycle arrest in human MDA-MB-231 cells assessed as accumulation at S phase at 5 uM after 24 hrs by propidium iodide staining based flow cytometry (reference value: 29.76%); format: functional
MDA-MB-231 [3] = assay: Induction of morphological changes in human MDA-MB-231 cells assessed as large vacuole formation at 5 uM after 24 hrs; format: functional, cell-based
MDA-MB-231 [4] = assay: Cell cycle arrest in human MDA-MB-231 cells assessed as accumulation at G2/M phase at 5 uM after 24 hrs by propidium iodide staining based flow cytometry (reference value: 18.5%); format: functional
MDA-MB-231 [5] = assay: Induction of apoptosis in human MDA-MB-231 cells assessed as necrotic cells at 5 uM after 48 hrs by Annexin V-FITC/propidium iodide staining based flow cytometry (reference value: 0.7%); format: functional
K562 = assay: Growth inhibition of human K562 cells after 72 hrs by MTT assay; format: functional, cell-based; details: K562, 72 h
[6] = Growth inhibition of human WM9 cells after 72 hrs by MTT assay; format: functional; details: WM9, 72 h
MDA-MB-231 [7] = assay: Induction of apoptosis in human MDA-MB-231 cells assessed as decrease in Bcl2 protein expression at 5 uM after 16 hrs by Western blot analysis; format: functional, cell-based
MDA-MB-231 [8] = assay: Inhibition of autophagy in human MDA-MB-231 cells assessed as increase in p62 protein expression at 5 uM after 16 hrs by Western blot analysis; format: functional, cell-based
MDA-MB-231 [9] = assay: Induction of apoptosis in human MDA-MB-231 cells assessed as early apoptotic cells at 5 uM after 48 hrs by Annexin V-FITC/propidium iodide staining based flow cytometry (reference value: 5.3%); format: functional
MDA-MB-231 [10] = assay: Cell cycle arrest in human MDA-MB-231 cells assessed as accumulation at G2/M phase at 5 uM after 48 hrs by propidium iodide staining based flow cytometry (reference value: 17.79%); format: functional
[11] = Growth inhibition of human WM35 cells after 72 hrs by MTT assay; format: functional; details: WM35, 72 h
4T1 = assay: Growth inhibition of mouse 4T1 cells after 72 hrs by MTT assay; format: functional, cell-based; details: 4T1, 72 h
MDA-MB-231 [12] = assay: Cell cycle arrest in human MDA-MB-231 cells assessed as accumulation at G1 phase at 5 uM after 24 hrs by propidium iodide staining based flow cytometry (reference value: 47.9%); format: functional
[13] = molecular target: Serine/threonine-protein kinase mTOR (Homo sapiens) (UniProt P42345); assay: Inhibition of mTOR phosphorylation in human MDA-MB-231 cells at 5 uM after 16 hrs by Western blot analysis; format: cell-based
MDA-MB-231 [14] = assay: Cell cycle arrest in human MDA-MB-231 cells assessed as accumulation at G1 phase at 5 uM after 48 hrs by propidium iodide staining based flow cytometry (reference value: 3.19%); format: functional
MDA-MB-231 [15] = assay: Induction of apoptosis in human MDA-MB-231 cells assessed as live cells at 5 uM after 48 hrs by Annexin V-FITC/propidium iodide staining based flow cytometry (reference value: 87.6%); format: functional
MDA-MB-231 [16] = assay: Induction of apoptosis in human MDA-MB-231 cells assessed as early apoptotic cells at 5 uM after 24 hrs by Annexin V-FITC/propidium iodide staining based flow cytometry (reference value: 3.7%); format: functional
HEL = assay: Growth inhibition of HEL cells after 72 hrs by MTT assay; format: functional, cell-based; details: Homo sapiens
MDA-MB-231 [17] = assay: Induction of apoptosis in human MDA-MB-231 cells assessed as increase in Bax protein expression at 5 uM after 16 hrs by Western blot analysis; format: functional, cell-based
MDA-MB-231 [18] = assay: Induction of apoptosis in human MDA-MB-231 cells assessed as increase in Cyclin-B1 protein expression at 5 uM after 16 hrs by Western blot analysis; format: functional, cell-based
MDA-MB-231 [19] = assay: Cell cycle arrest in human MDA-MB-231 cells assessed as accumulation at S phase at 5 uM after 48 hrs by propidium iodide staining based flow cytometry (reference value: 31.71%); format: functional
MDA-MB-231 [20] = assay: Induction of apoptosis in human MDA-MB-231 cells assessed as late apoptotic cells at 5 uM after 48 hrs by Annexin V-FITC/propidium iodide staining based flow cytometry (reference value: 6.5%); format: functional
MDA-MB-231 [21] = assay: Growth inhibition of human MDA-MB-231 cells at 1 to 5 uM after 72 hrs by MTT assay; format: functional, cell-based
MDA-MB-231 [22] = assay: Induction of apoptosis in human MDA-MB-231 cells assessed as necrotic cells at 5 uM after 24 hrs by Annexin V-FITC/propidium iodide staining based flow cytometry (reference value: 0.7%); format: functional
MDA-MB-231 [23] = assay: Induction of apoptosis in human MDA-MB-231 cells assessed as late apoptotic cells at 5 uM after 24 hrs by Annexin V-FITC/propidium iodide staining based flow cytometry (reference value: 4.8%); format: functional
MDA-MB-231 [24] = assay: Induction of apoptosis in human MDA-MB-231 cells assessed as live cells at 5 uM after 24 hrs by Annexin V-FITC/propidium iodide staining based flow cytometry (reference value: 90.8%); format: functional
MDA-MB-231 [25] = assay: Inhibition of autophagy in human MDA-MB-231 cells assessed as LC3-2 accumulation at 5 uM after 16 hrs by DAPI staining based immunofluorescence assay; format: functional, cell-based

Structure (SMILES): CN(C)c1ccc(NC(=O)c2cc3c4ccccc4[nH]c3c3c2[nH]c2ccccc23)cc1
- IC50 (MCF7): 16.4 µM
- IC50 (MDA-MB-231 [1]): 7.79 µM

Structure (SMILES): CC(C)N(CCNC(=O)c1cc2c3ccccc3[nH]c2c2c1[nH]c1ccccc12)C(C)C
- IC50 (MCF7): 3.12 µM
- IC50 (MDA-MB-231 [1]): 1.72 µM

Structure (SMILES): O=C(NCc1cccnc1)c1cc2c3ccccc3[nH]c2c2c1[nH]c1ccccc12
- IC50 (MCF7): 9.8 µM
- IC50 (MDA-MB-231 [1]): 6.01 µM

Structure (SMILES): COC(=O)c1cc2c3ccccc3[nH]c2c2c1[nH]c1ccccc12
- IC50 (MCF7): > 40 µM
- IC50 (MDA-MB-231 [1]): > 40 µM

Structure (SMILES): CN(C)c1ccccc1NC(=O)c1cc2c3ccccc3[nH]c2c2c1[nH]c1ccccc12
- IC50 (MCF7): 10.8 µM
- IC50 (MDA-MB-231 [1]): 7.81 µM

Structure (SMILES): CCN1CCCC1CNC(=O)c1cc2c3ccccc3[nH]c2c2c1[nH]c1ccccc12 (configuration not stated)
- IC50 (MCF7): 5.83 µM
- IC50 (MDA-MB-231 [1]): 3.53 µM

Structure (SMILES): COC(=O)c1cc2c3ccccc3[nH]c2c2c1[nH]c1cc(Cl)ccc12
- IC50 (MCF7): > 40 µM
- IC50 (MDA-MB-231 [1]): > 40 µM

Structure (SMILES): COc1ccc2[nH]c3c(C(=O)NCCN(C)C)cc4c5ccccc5[nH]c4c3c2c1
- IC50 (MCF7): 5.17 µM
- IC50 (MDA-MB-231 [1]): 2.74 µM

Second part, led by results:

- IC50 (MCF7): 3.7 µM
- IC50 (MDA-MB-231 [1]): 4.48 µM
Structure (SMILES): CN(C)CCCNC(=O)c1cc2c3ccccc3[nH]c2c2c1[nH]c1ccccc12

- IC50 (MCF7): > 40 µM
- IC50 (MDA-MB-231 [1]): > 40 µM
Structure (SMILES): COC(=O)c1cc2c3ccccc3[nH]c2c2c1[nH]c1ccc(Br)cc12

- IC50 (MCF7): 3.89 µM
- IC50 (MDA-MB-231 [1]): 1.62 µM
Structure (SMILES): CN1CCC(NC(=O)c2cc3c4ccccc4[nH]c3c3c2[nH]c2ccccc23)CC1

- IC50 (MCF7): 3.27 µM
- IC50 (MDA-MB-231 [1]): 1.72 µM
Structure (SMILES): O=C(NCCN1CCCCC1)c1cc2c3ccccc3[nH]c2c2c1[nH]c1ccccc12

- IC50 (MCF7): 2 µM
- IC50 (K562): 1.56 µM
- IC50 (MDA-MB-231 [1]): 1.06 µM
- IC50 (4T1): 2.77 µM
- inhibition [13]: Active
Structure (SMILES): CN(C)CCNC(=O)c1cc2c3ccccc3[nH]c2c2c1[nH]c1ccc(Br)cc12
- Activity (MDA-MB-231 [2]): 29.31%
- Activity (MDA-MB-231 [3]): Active
- Activity (MDA-MB-231 [4]): 22.91%
- Activity (MDA-MB-231 [5]): 9.6%
- IC50 [6]: 2.43 µM
- Activity (MDA-MB-231 [7]): inactive
- inhibition (MDA-MB-231 [8]): Active
- Activity (MDA-MB-231 [9]): 14.2%
- Activity (MDA-MB-231 [10]): 29.98%
- IC50 [11]: 3.81 µM
- Activity (MDA-MB-231 [12]): 47.46%
- Activity (MDA-MB-231 [14]): 48.65%
- Activity (MDA-MB-231 [15]): 70.8%
- Activity (MDA-MB-231 [16]): 10.8%
- IC50 (HEL): 3.63 µM
- Activity (MDA-MB-231 [17]): inactive
- Activity (MDA-MB-231 [18]): inactive
- Activity (MDA-MB-231 [19]): 21.38%
- Activity (MDA-MB-231 [20]): 5.5%
- growth inhibition (GI) (MDA-MB-231 [21]): Active
- Activity (MDA-MB-231 [22]): 2%
- Activity (MDA-MB-231 [23]): 5%
- Activity (MDA-MB-231 [24]): 82.2%
- inhibition (MDA-MB-231 [25]): Active

- IC50 (MCF7): 22.7 µM
- IC50 (MDA-MB-231 [1]): 7.92 µM
Structure (SMILES): O=C(NCc1ccccn1)c1cc2c3ccccc3[nH]c2c2c1[nH]c1ccccc12

- IC50 (MCF7): 2.39 µM
- IC50 (MDA-MB-231 [1]): 1.71 µM
Structure (SMILES): CCN(CC)CCNC(=O)c1cc2c3ccccc3[nH]c2c2c1[nH]c1ccccc12
